Measurements taken from paper PMC9021288 (Nature Communications, 2022).

test system: P. falciparum NF54 asexual blood-stage parasites; experiment: 72-h asexual blood-stage replication assay (SYBR Green); type: cell-based, Plasmodium falciparum; details: asexual blood stages NF54 parasites; read-out: IC50
Protocol: Replication assays were performed using a SYBR Green method as described previously. Briefly, asynchronous parasites were diluted to 0.83% parasitemia, 3% hematocrit in 30 µl medium, and added to 30 µl of diluted compounds in medium (0.1% DMSO final concentration) in black 384-wells plates. After a 72-h incubation, 30 µl of SYBR Green diluted in lysis buffer was added according to the manufacturer’s protocol (Life Technologies). Fluorescence intensity was measured on a BioTek Synergy 2 Plate Reader after 1-h incubation and was normalized to a DMSO control (100% growth) and DHA- or epoxomicin-treatment (no growth). […] Parasite survival was assessed by flow cytometry on an Accuri C6 (BD Biosciences) with BD C6 Plus software using SYBR Green and MitoTracker Deep Red FM (Life Technologies) as nuclear stain and vital dye, respectively, and data were analyzed using FlowJo (10.5.0). […] Luminescence was measured after 72 h using the Renilla-Glo(R) Luciferase Assay System (Promega E2750) and the GlomAX® Discover Multimode Microplate Reader (Promega). The luminescence values were normalized to DMSO vehicle (100% growth) and 200 nM chloroquine-treated (no growth) samples as controls.
Dose-response assays were analyzed by a nonlinear regression using a four-parameter model and the least squares method to find the best fit. One-way Analysis of variance (ANOVA) was performed using the Bonferroni’s Multiple Comparison Test. For the majority of experiments, 2-4 biological replicates were performed. Typically, 2 replicates were performed for screening activities, and a minimum of 3 replicates are performed for other experiments unless stated otherwise.

Compound	IC50 [nM]
CC(CNC(=O)C(C)(O)C(C)(C)CO)NC(=O)CCc1ccccc1F (mixture of isomers) [MMV1545785]	1000
C[C@@H](CNC(=O)[C@H](O)C(C)(C)CO)NC(=O)c1ccccc1F [MMV154200]	41
C[C@H](CNC(=O)[C@H](O)C(C)(C)CO)NC(=O)CCc1ccccc1F [MMV689260]	210
CC(C)(CNC(=O)CCc1ccccc1F)NC(=O)[C@H](O)C(C)(C)CO [MMV689261]	> 10000
CC(C)(CNC(=O)[C@H](O)C(C)(C)CO)NC(=O)CCc1ccccc1F [MMV689455]	1190
C[C@@H](CNC(=O)[C@H](O)C(C)(C)CO)NC(=O)c1cc(Cl)c(F)cc1F [MMV692009]	2.3
CC[C@@H](CNC(=O)[C@H](O)C(C)(C)CO)NC(=O)CCc1ccccc1F [MMV692676]	122
C[C@@H](CNC(=O)[C@H](O)C(C)(C)CO)NS(=O)(=O)CCc1ccccc1 [MMV692748]	> 10000
C[C@@H](CNC(=O)[C@H](O)C(C)(C)CO)NC(=O)c1c(F)cccc1F [MMV693185]	478
C[C@@H](CNC(=O)[C@@H](O)C(C)(C)CO)NC(=O)CCc1ccccc1F [MMV884787]	235
C[C@@H](CNC(=O)[C@H](O)C(C)(C)CO)c1nnc(CCc2ccccc2F)[nH]1 [MMV884788]	554
C[C@@H](CNC(=O)[C@H](O)C(C)(C)CO)NC(=O)c1ccc(C#N)cc1 [MMV884961]	535
CCC(CC)(CO)[C@@H](O)C(=O)NC[C@H](C)NC(=O)CCc1ccccc1F [MMV884964]	> 1000
C[C@H](CNC(=O)[C@@H](O)C(C)(C)CO)NC(=O)CCc1ccccc1F [MMV884968]	> 1000
C[C@@H](CNC(=O)[C@H](O)C(C)(C)CO)NC(=O)c1cccc(S(C)(=O)=O)c1 [MMV884969]	> 10000
C[C@@H](CNC(=O)[C@H](O)C(C)(C)CO)NC(=O)c1cccc(N(C)C)c1 [MMV884970]	> 10000
C[C@@H](CNC(=O)[C@H](O)C(C)(C)CO)NC(=O)c1ccc(C(F)(F)F)cc1 [MMV892612]	132
C[C@@H](CNC(=O)[C@H](O)C(C)(C)CO)NC(=O)c1ccccc1C(F)(F)F [MMV892613]	> 10000
C[C@@H](CNC(=O)[C@H](O)C(C)(C)CO)NC(=O)c1cccc(C(F)(F)F)c1 [MMV892614]	143
C[C@@H](CNC(=O)[C@H](O)C(C)(C)CO)NC(=O)c1ccccc1Cl [MMV892807]	> 10000
C[C@@H](CNC(=O)[C@H](O)C(C)(C)CO)NC(=O)c1cccc(Cl)c1 [MMV892808]	2.3
C[C@@H](CNC(=O)[C@H](O)C(C)(C)CO)NC(=O)c1ccc(Cl)cc1 [MMV892809]	103
COc1ccc(C(=O)N[C@@H](C)CNC(=O)[C@H](O)C(C)(C)CO)cc1 [MMV892810]	344
COc1cccc(C(=O)N[C@@H](C)CNC(=O)[C@H](O)C(C)(C)CO)c1 [MMV892811]	32
COc1ccccc1C(=O)N[C@@H](C)CNC(=O)[C@H](O)C(C)(C)CO [MMV892812]	> 10000
C[C@@H](CNC(=O)[C@H](O)C(C)(C)CO)NC(=O)c1cccc(F)n1 [MMV892814]	> 10000
Cc1cc(C(=O)N[C@@H](C)CNC(=O)[C@H](O)C(C)(C)CO)c(F)cc1F [MMV893115]	66

Compound	IC50 [nM]
C[C@@H](CNC(=O)[C@H](O)C(C)(C)CO)NC(=O)c1cc2ccccc2[nH]1 [MMV893121]	53
C[C@@H](CNC(=O)[C@H](O)C(C)(C)CO)NC(=O)c1cc2ccccc2o1 [MMV893335]	12.5
C[C@@H](CNC(=O)[C@H](O)C(C)(C)CO)NC(=O)c1cc2ccccc2s1 [MMV893336]	19.9
C[C@@H](CNC(=O)[C@H](O)C(C)(C)CO)NC(=O)c1coc2ccccc12 [MMV893337]	3.9
C[C@@H](CNC(=O)[C@H](O)C(C)(C)CO)NC(=O)c1csc2ccccc12 [MMV893338]	195
C[C@@H](CNC(=O)[C@H](O)C(C)(C)CO)NC(=O)c1ccoc1 [MMV893339]	42
C[C@@H](CNC(=O)[C@H](O)C(C)(C)CO)NC(=O)c1ccsc1 [MMV893340]	14.6
C[C@@H](CNC(=O)[C@H](O)C(C)(C)CO)NC(=O)c1cccs1 [MMV893344]	18.2
C[C@@H](CNC(=O)[C@H](O)C(C)(C)CO)NC(=O)c1ccc[nH]1 [MMV893345]	> 10000
C[C@@H](CNC(=O)[C@H](O)C(C)(C)CO)NC(=O)c1c[nH]c2ccccc12 [MMV893375]	41
C[C@@H](CNC(=O)[C@H](O)C(C)(C)CO)NC(=O)c1cc[nH]c1 [MMV893376]	1800
C[C@@H](CNC(=O)[C@H](O)C(C)(C)CO)NC(=O)c1cc(Cl)c(Cl)cc1F [MMV893655]	19.7
C[C@@H](CNC(=O)[C@H](O)C(C)(C)CO)NC(=O)c1ccc(F)c(Cl)c1 [MMV977407]	3.4
C[C@@H](CNC(=O)[C@H](O)C(C)(C)CO)NC(=O)c1ccc(F)c(C#N)c1 [MMV977409]	84
C[C@@H](CNC(=O)[C@H](O)C(C)(C)CO)NC(=O)c1cccc(C#N)c1F [MMV977410]	19
C[C@@H](CNC(=O)[C@H](O)C(C)(C)CO)NC(=O)c1cccc(Cl)c1F [MMV977411]	12
C[C@@H](CNC(=O)[C@H](O)C(C)(C)CO)NC(=O)c1ccc(F)cc1 [MMV1542002]	82
Cc1ccccc1C(=O)N[C@@H](C)CNC(=O)[C@H](O)C(C)(C)CO [MMV1542005]	> 10000
Cc1cccc(C(=O)N[C@@H](C)CNC(=O)[C@H](O)C(C)(C)CO)c1 [MMV1542099]	22
Cc1ccc(C(=O)N[C@@H](C)CNC(=O)[C@H](O)C(C)(C)CO)cc1 [MMV1542100]	85
C[C@@H](CNC(=O)[C@H](O)C(C)(C)CNS(C)(=O)=O)NC(=O)CCc1ccccc1F [MMV1545779]	> 1000
C[C@@H](CNC(=O)C(=O)C(C)(C)CO)NC(=O)CCc1ccccc1F [MMV1545786]	1000
C[C@@H](CNC(=O)[C@H](O)C(C)(C)CO)NC(=O)c1cccc(F)c1F [MMV1576723]	32.7
C[C@@H](CNC(=O)[C@H](O)C(C)(C)CO)NC(=O)c1cc(F)ccc1F [MMV1576724]	7
C[C@@H](CNC(=O)[C@H](O)C(C)(C)CO)NC(=O)c1ccc(Cl)c(F)c1 [MMV1576725]	56
C[C@@H](CNC(=O)[C@H](O)C(C)(C)CO)NC(=O)c1cc(Cl)ccc1F [MMV1576728]	2.6

test system: TA98, TA100, TA102, TA1535, TA1537; experiment: not given; details: TA98, -S-9, 5 ug/plate, positive control
Protocol: Safety studies were performed by commercial services using their standard protocols. […] Genotoxicity was investigated using the Ames test (Bacterial Reverse Mutation Assay) (Covance Laboratories Ltd, North Yorkshire, England). In vitro mammalian cell micronucleus screening assay was studied in human peripheral blood lymphocytes (BioReliance Corporation, Rockville, USA). Cardiotoxicity was determined against the hERG channel in an automated patch clamp assay using the Qpatch or against the hNaV 1.5, hKV 1.5 and hCaV 1.2 using a manual patch-clamp technique (Metrion Biosciences, Cambridge, UK). Cytotoxicity in human and rat primary hepatocytes was assessed using the CellTiter-Blue assay performed by commercial services (KaLy-Cell). The viability of HepG2 cells was monitored through the addition of 1 mM resazurin. Following 6 h incubation, the relative amount of reduced resazurin was detected in a fluorimeter and compared to the assay controls (vehicle: 0.1% DMSO and positive control: 10 µM puromycin).

Compound	Fold Increase	Mean (Revertant Numbers Per Plate)
O=[N+]([O-])c1ccc2c(c1)Cc1ccccc1-2 [Compound 2NF]	49.1	1375.7

same assay, conditions: TA100, +S-9, 5 ug/plate, positive control

Compound	Fold Increase	Mean (Revertant Numbers Per Plate)
Nc1ccc2cc3ccccc3cc2c1 [AAN]	21.6	2606

same assay, conditions: TA100, -S-9, 2 ug/plate, positive control

Compound	Fold Increase	Mean (Revertant Numbers Per Plate)
[N-]=[N+]=[N-].[Na+] [NaN3]	9.7	845

same assay, conditions: TA102, +S-9, 20 ug/plate, positive control

Compound	Fold Increase	Mean (Revertant Numbers Per Plate)
Nc1ccc2cc3ccccc3cc2c1 [AAN]	11	2462

same assay, conditions: TA102, -S-9, 0.2 ug/plate, positive control

Compound	Fold Increase
CO[C@@]12[C@H](COC(N)=O)C3=C(C(=O)C(C)=C(N)C3=O)N1C[C@@H]1N[C@@H]12 [MMC]	3.3

same assay, conditions: TA1535, +S-9, 5 ug/plate, positive control

Compound	Fold Increase	Mean (Revertant Numbers Per Plate)
Nc1ccc2cc3ccccc3cc2c1 [AAN]	7.5	173.3

same assay, conditions: TA1535, -S-9, 2 ug/plate, positive control

Compound	Fold Increase	Mean (Revertant Numbers Per Plate)
[N-]=[N+]=[N-].[Na+] [NaN3]	26.6	672.7

same assay, conditions: TA1537, +S-9, 5 ug/plate, positive control

Compound	Fold Increase	Mean (Revertant Numbers Per Plate)
Nc1ccc2cc3ccccc3cc2c1 [AAN]	39.7	277.7

same assay, conditions: TA1537, -S-9, 50 ug/plate, positive control

Compound	Fold Increase	Mean (Revertant Numbers Per Plate)
Nc1c2ccccc2nc2ccccc12 [AAC]	54.9	384.3
